Assay results published in ChEMBL document CHEMBL1201862, “PubChem BioAssay data set” (2004).
Blank lines part the entries; values can stand above or below the compound they belong to. Active and inactive are the calls of the source.

Legend:
HEK293 [1] = test: NOD1 signaling inhibitors, primary screen, cell-based, luminescence, uHTS (AID 1578); type: functional; settings: Homo sapiens
HEK293 [2] = test: cells; type: functional, cell-based; settings: Homo sapiens
HEK293 [3] = test: cells; type: functional, cell-based; settings: Homo sapiens; remark: listed apart in the source
[4] = molecular target: Nucleotide-binding oligomerization domain-containing protein 2 (Homo sapiens, UniProt Q9HC29); test: NOD2 signaling inhibitors, cell-based, luminescence, uHTS, HEK293 (AID 1566); type: functional
HEK293 [5] = test: NOD2 signaling inhibitors in MDP-stimulated cells, cell-based, uHTS, luminescence (AID 2001); type: functional; settings: Homo sapiens
HEK293 [6] = test: cells; type: functional, cell-based; settings: Homo sapiens; remark: listed apart in the source
[7] = molecular target: Photoreceptor-specific nuclear receptor (Homo sapiens, UniProt Q9Y5X4); type: functional, cell-based;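 note: CHO-S cells with Gal4-NCOR and VP16-NR2E3 two-hybrid luciferase reporter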
[8] = molecular target: T1, Sentrin-specific protease 1 (Homo sapiens, UniProt Q9P0U3); test: potency of human SENP1 inhibitors, dose response, biochemical, kinetic FRET (AID 651697); type: functional; settings: read-out: IC50_Mean
T1 sequence (Q9P0U3 whole entry): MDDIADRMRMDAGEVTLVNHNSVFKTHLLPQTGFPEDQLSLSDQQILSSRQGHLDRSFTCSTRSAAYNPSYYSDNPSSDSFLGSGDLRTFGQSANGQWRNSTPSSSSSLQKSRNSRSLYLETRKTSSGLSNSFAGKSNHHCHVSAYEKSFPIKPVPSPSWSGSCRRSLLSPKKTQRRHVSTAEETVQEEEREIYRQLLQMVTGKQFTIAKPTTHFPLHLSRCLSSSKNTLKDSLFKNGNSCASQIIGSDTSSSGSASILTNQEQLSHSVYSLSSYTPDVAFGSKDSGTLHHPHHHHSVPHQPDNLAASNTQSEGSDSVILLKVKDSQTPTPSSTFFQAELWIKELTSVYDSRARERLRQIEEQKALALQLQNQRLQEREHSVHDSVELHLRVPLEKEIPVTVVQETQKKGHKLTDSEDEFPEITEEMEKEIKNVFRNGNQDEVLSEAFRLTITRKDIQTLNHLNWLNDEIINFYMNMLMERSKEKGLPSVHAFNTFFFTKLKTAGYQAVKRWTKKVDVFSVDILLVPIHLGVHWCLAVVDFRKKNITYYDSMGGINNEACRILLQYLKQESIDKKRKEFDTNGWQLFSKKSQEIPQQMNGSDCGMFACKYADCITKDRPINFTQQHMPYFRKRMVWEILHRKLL

[9] = molecular target: T1, Sentrin-specific protease 1; test: Dose response confirmation of small molecule inhibitors of the catalytic domain of the SUMO protease, SENP1 in a FRET assay.; type: functional; settings: read-out: IC50_Mean
[10] = NIH-3T3 fibroblast cytotoxicity, dose response, cytotoxicity control, cell-based, fluorescence, Alamar Blue, secondary assay (AID 2327); type: functional;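 note: NIH-3T3 mouse fibroblasts cultured with fluconazole at 8 µg/mL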
[11] = C. albicans growth with fluconazole, confirmation, fluorescence, retest (AID 2467); type: functional, cell-based
Estrogen receptor = molecular target: T2, Estrogen receptor (Homo sapiens, UniProt P03372);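 note: potency for inhibiting coactivator peptide recruitment to the receptor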
T2 sequence (P03372 whole entry): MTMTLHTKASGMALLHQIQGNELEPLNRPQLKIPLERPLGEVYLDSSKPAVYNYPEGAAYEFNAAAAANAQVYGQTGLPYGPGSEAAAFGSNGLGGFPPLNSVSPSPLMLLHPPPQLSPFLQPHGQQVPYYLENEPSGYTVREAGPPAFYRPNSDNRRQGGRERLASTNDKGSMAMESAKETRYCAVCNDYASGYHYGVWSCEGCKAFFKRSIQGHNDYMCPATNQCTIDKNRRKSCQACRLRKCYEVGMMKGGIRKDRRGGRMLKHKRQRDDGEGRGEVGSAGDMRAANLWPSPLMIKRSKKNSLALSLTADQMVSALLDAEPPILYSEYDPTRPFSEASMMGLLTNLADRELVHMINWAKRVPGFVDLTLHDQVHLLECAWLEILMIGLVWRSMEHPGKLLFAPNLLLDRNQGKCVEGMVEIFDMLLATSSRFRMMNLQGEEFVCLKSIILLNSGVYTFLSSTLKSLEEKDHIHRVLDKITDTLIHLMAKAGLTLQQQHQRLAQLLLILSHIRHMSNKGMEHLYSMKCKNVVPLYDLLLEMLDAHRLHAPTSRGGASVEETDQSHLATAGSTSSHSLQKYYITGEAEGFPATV

[12] = inhibitors of intracellular T. cruzi replication, confirmation, NIH3T3 host cells, beta-gal luminescence (AID 2044); type: functional, cell-based;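 note: intracellular parasites grown in NIH/3T3 mouse fibroblasts as host cells; luminescent beta-galactosidase reporter signal from transgenic T. cruzi replicating inside host cells; inhibitors lower the luminescence signal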
[13] = cytotoxicity toward NIH3T3 fibroblasts, dose response, counter-screen, cell-based, ATP luminescence, mouse fibroblasts (AID 2010); type: functional;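 note: cells exposed to compound for about 90 hours before reading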
Large T antigen = Large T antigen (Simian virus 40, UniProt P03070); type: functional, Betapolyomavirus macacae;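 note: Confirmatory-stage PubChem screen for compounds that inhibit SV40 T antigen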
[14] = molecular target: T3, Heat shock factor protein 1 (Mus musculus, UniProt P38532); test: HSF1 potentiators in luciferase reporter cells, confirmation, cell-based, NIH3T3, luminescence, dose retest (AID 435004); type: functional;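 note: stress induced by proteasome inhibitor MG132 added 30 min after compound; luciferase reporter driven by HSF1 response element in NIH3T3 cells; actives raise luminescence as potentiators of the MG132 stress response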
T3 sequence (P38532 whole entry): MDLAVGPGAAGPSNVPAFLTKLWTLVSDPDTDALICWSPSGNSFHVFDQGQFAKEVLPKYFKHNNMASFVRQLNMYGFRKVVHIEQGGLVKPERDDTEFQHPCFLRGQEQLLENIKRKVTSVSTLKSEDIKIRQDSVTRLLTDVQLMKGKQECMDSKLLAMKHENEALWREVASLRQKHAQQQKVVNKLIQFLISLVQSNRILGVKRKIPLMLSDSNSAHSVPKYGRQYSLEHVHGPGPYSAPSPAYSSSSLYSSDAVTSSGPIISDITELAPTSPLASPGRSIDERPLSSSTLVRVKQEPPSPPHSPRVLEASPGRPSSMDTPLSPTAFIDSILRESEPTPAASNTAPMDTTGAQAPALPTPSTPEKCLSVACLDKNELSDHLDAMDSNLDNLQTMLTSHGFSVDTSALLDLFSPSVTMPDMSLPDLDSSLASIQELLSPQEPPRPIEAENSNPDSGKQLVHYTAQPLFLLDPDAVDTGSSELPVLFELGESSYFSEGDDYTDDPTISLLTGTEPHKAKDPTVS

Protein Wnt-3a = Protein Wnt-3a (Mus musculus, UniProt P27467); test: Wnt3a-driven reporter signaling inhibition, dose response, selectivity assay for Gli-SUFU antagonist project, Wnt-LIGHT cells, luminescence (AID 651570); type: functional; settings: read-out: IC50_Mean;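 note: Wnt-LIGHT reporter cells stimulated with conditioned medium from Wnt3a-producing cells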
[15] = molecular target: T4, Rac GTPase-activating protein 1 (Homo sapiens, UniProt Q9H0H5); test: MgcRacGAP GTPase-activating activity inhibitors, confirmation, biochemical, ADP Hunter fluorescence, primary and confirmatory (AID 624330); type: functional
T4 sequence (Q9H0H5 whole entry): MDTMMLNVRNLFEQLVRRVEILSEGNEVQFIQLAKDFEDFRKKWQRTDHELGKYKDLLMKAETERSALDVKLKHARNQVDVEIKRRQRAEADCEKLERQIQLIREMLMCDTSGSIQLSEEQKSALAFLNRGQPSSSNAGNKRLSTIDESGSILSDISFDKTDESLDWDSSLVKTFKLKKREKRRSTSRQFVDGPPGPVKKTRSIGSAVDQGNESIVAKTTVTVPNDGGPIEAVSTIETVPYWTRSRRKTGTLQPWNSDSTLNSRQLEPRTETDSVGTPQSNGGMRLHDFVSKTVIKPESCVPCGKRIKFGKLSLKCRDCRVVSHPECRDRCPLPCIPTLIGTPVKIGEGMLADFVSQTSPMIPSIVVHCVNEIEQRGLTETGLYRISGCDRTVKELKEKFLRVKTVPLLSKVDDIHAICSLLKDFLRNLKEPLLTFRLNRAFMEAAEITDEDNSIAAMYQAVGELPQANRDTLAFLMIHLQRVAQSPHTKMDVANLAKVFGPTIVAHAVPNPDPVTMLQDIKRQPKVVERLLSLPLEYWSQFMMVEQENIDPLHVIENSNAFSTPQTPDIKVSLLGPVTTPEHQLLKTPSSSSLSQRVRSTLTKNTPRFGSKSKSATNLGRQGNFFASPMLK

[16] = miR-122 activators in hepatoma reporter cells, dose response, cell-based, Huh7 psiCHECK-miR122, Renilla luciferase, cherry-picked (AID 651956); type: functional;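 note: huh7 hepatoma cells stably carrying a psiCHECK-2 miR-122 sensor plasmid; renilla luciferase signal reporting endogenous miR-122 activity after 48 h compound exposure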

Chain of Photoreceptor-specific nuclear receptor (Q9Y5X4 whole entry, the tested form may be a part): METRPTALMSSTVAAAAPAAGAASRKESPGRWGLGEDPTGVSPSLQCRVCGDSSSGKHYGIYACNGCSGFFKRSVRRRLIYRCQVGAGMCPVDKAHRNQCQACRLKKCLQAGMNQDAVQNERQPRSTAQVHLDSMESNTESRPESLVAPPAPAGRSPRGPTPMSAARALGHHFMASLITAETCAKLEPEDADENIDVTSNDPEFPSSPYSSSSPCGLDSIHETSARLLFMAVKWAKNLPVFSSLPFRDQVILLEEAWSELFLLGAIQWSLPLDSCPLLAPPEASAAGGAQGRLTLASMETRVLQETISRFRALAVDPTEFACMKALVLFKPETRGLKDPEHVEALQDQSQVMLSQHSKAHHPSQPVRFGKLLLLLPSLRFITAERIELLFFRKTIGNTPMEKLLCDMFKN
Chain of Nucleotide-binding oligomerization domain-containing protein 2 (Q9HC29 whole entry, the tested form may be a part): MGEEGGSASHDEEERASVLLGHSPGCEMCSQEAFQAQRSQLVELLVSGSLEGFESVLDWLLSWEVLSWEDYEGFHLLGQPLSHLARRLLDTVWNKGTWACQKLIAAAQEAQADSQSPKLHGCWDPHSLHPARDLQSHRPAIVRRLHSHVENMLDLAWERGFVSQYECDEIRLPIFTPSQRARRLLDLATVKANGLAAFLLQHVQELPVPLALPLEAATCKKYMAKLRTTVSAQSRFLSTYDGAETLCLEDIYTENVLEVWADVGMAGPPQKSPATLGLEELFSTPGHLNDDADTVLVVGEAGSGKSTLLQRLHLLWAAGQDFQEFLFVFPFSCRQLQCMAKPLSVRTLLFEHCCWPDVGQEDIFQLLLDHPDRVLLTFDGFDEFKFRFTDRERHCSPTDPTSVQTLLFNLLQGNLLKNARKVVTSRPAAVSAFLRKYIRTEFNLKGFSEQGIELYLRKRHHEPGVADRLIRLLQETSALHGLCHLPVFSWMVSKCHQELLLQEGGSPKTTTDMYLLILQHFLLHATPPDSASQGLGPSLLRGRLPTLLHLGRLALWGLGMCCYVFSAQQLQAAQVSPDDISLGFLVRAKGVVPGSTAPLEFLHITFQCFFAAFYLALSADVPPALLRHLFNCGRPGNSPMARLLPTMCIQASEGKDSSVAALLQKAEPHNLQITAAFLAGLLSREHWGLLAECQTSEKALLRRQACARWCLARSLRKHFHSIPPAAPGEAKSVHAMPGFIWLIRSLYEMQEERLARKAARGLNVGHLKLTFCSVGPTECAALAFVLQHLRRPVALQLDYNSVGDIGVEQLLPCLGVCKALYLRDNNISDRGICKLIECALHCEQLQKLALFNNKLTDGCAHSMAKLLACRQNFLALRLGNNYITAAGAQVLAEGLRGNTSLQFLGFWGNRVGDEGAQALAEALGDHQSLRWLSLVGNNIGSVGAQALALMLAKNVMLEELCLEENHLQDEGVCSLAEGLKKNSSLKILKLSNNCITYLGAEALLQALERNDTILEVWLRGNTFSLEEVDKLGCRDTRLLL
Chain of Large T antigen (P03070 whole entry): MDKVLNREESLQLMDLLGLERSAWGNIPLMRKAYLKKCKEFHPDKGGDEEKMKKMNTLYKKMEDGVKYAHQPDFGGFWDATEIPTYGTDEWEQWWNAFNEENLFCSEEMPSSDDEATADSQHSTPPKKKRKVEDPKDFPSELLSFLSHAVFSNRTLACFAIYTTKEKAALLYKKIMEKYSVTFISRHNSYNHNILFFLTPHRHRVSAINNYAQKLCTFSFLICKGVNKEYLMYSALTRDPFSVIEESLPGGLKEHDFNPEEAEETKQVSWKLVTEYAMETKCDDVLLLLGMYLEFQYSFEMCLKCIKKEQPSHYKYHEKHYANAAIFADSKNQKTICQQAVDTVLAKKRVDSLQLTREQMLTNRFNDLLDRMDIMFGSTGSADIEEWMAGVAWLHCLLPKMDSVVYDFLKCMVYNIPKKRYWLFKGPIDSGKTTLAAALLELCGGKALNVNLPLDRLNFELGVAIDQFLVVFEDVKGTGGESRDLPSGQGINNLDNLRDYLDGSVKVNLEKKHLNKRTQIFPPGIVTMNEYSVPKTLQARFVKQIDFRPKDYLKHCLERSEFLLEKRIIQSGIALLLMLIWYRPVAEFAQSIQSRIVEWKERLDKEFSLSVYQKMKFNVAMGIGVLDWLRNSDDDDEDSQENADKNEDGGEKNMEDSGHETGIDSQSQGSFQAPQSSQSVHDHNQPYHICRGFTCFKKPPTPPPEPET
Chain of Protein Wnt-3a (P27467 whole entry): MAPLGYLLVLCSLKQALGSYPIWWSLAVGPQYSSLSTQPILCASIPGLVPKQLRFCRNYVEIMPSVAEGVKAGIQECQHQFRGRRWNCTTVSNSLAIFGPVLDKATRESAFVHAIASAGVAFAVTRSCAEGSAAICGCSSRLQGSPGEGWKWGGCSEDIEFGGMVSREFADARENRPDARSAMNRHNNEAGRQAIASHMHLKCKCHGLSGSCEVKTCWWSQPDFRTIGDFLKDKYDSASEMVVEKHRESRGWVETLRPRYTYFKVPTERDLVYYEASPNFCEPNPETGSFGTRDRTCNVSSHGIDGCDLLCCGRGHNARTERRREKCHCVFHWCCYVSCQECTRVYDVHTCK

Compound: C=CCn1c(C)cc(C(=O)COc2ccc(C)nc2[N+](=O)[O-])c1C
EC50 (HEK293 [1]): > 20 µM (inactive) | IC50 (HEK293 [2]): 5.78 µM (active) | IC50 (HEK293 [3]): > 20 µM (inactive) | EC50 [4]: 6.96 µM (active) | IC50 (HEK293 [5]): > 20 µM (inactive) | IC50 (HEK293 [6]): > 20 µM (inactive) | IC50 [7]: 4.69 µM (active)

Compound: Cc1cccc(-n2c(SCc3cc(=O)n4ccsc4n3)nc3ccccc32)c1
EC50 [10]: 19.9 µM (active) | EC50 [11]: 2.05 µM (active) | IC50 (Estrogen receptor): > 50 µM (not active) | EC50 [12]: < 0.1 µM (active) | EC50 [13]: > 60 µM (not active) | IC50 [8]: 22.3 µM (inactive) | IC50 [9]: 9.71 µM (active) | EC50 (cells): 0.209 µM (active)

Compound: COc1cc(S(=O)(=O)Nc2ccc3c(c2)C(=O)N(C)C3=O)ccc1NC(C)=O
IC50 [8]: 9.06 µM (active) | IC50 [9]: 9.39 µM (active)

Compound: CCCC#Cc1ccc2c(c1)O[C@H](CN(C)C(=O)c1ccncc1)[C@H](C)CN([C@@H](C)CO)S2(=O)=O
AC50 [16]: 1.06 µM (active)

Compound: CCC(=O)N1C[C@H]2[C@@H](c3ccccc31)[C@H](CO)N2C(=O)Nc1ccccc1F
AC50 [16]: 4.38 µM (active)

Compound: Cc1ccccc1-c1ccc2c(c1)O[C@@H](CN(C)C(=O)Nc1ccc(F)cc1)[C@@H](C)CN([C@@H](C)CO)S2(=O)=O
AC50 [16]: 18.5 µM (active)

Now from value to compound:

IC50 [8]: 53.8 µM (inactive) | IC50 [9]: 17.2 µM (active)
Compound: c1ccc(NC2=Nc3cccc4cccc2c34)cc1

IC50 [8]: 7.01 µM (active) | IC50 [9]: 7.24 µM (active)
Compound: c1ccc(CN2CCN(C3=Nc4cccc5cccc3c45)CC2)cc1

IC50 [8]: 45.8 µM (inactive) | IC50 [9]: 10 µM (active)
Compound: COc1ccc(NC2=Nc3cccc4cccc2c34)cc1

IC50 (Large T antigen): 12.1 µM (active) | EC50 [14]: 5.35 µM (active) | IC50 [7]: 3.35 µM (active) | IC50 (Protein Wnt-3a): 7.28 µM (active) | IC50 [15]: 13 µM (active)
Compound: O=C1N/C(=C\c2ccc(O)cc2)C(O)=C1/C=N/Cc1ccccc1
